# Laboratory results reported in paper PMC3269340, “Pharmacokinetics of memantine in rats and mice” (PLoS Currents, 2012).
# pIC50: −log10 of the molar value. Like-named read-outs stand apart in the source and are kept apart here.
# Legend:
# human PEPT1 = molecular target: T1, human PEPT1 (Homo sapiens, UniProt P46059); experiment: Indirect uptake transporter assay, PEPT1; format: in vitro ADME
# T1 sequence (P46059 1-708): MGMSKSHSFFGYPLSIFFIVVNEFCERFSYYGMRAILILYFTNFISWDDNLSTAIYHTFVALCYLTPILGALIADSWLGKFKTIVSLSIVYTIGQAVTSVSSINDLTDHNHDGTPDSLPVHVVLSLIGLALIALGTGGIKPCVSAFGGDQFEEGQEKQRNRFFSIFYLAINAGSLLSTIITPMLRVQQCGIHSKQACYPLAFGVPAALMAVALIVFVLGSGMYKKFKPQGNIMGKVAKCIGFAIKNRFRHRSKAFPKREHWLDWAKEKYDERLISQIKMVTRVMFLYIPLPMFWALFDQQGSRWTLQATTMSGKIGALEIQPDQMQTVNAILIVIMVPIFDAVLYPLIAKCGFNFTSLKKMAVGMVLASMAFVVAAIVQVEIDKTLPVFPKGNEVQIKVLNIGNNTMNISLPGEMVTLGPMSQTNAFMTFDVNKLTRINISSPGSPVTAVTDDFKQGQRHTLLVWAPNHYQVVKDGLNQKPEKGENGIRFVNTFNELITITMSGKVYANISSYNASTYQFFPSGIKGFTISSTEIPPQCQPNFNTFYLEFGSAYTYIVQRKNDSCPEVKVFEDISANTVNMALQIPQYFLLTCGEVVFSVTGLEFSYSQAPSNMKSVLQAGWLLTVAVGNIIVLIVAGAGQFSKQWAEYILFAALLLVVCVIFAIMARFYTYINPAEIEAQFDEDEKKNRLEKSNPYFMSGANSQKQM
# From the text: (§1) To determine whether memantine is an inhibitor of the human OATP2B1 (OATP-B), OCT1, OCT2, OAT3, PEPT1, PEPT2 uptake transporters. The standard uptake transporter assay is an indirect, inhibitory-type screening assay, performed with cold test article, which in this case was memantine. It provides information on any interaction (substrate or inhibitor) between selected uptake transporters and memantine that would affect the transport of the reporter compound. […] A radiolabeled reporter substrate is transported into the cells transfected with the selected human uptake transporter, and the inhibitory effect of memantine on the transport of this reporter substrate is measured. Values are presented on a relative scale; 100% defined as transport in the presence of the solvent and without memantine (no inhibition), and 0% defined as transport detected without transporter activity. IC50 is defined as the concentration required to inhibit the transport of the reporter substrate by 50%.
# (§2) The uptake transporter assay was carried out under the conditions described in the table below, with either CHO cells or MDCKII cells stably expressing the respective uptake transporter.
# (§3) Duplicate incubations of memantine (0 or DMSO control, 0.41, 1.2, 3.7, 11, 33, 100 and 300 µM) were conducted per concentration on transfected and in parental cells. A reference inhibitor (positive control, duplicate) was incubated in transfected cells.
# (§4) CHO cells were cultured in a 1:1 mixture of Dubelcco’s Modified Eagle’s Medium (DMEM, Lonza, Allendale, NJ) and Ham's F-12 (F-12, Lonza, Allendale, NJ) and MDCKII cells in DMEM at 37°C in an atmosphere of 95:5 air:CO2. […]
# (§5) After the experiment cells were rinsed with 2 x 100µl of Krebs-Henseleit buffer and lysed with 50 µl of 0.1M NaOH. ^3H-estrone-3-sulfate, ^14C-TEA, ^14C-metformin and ^3H-Gly-Sar transport was determined by total radioactivity by transferring an aliquot (35µl) from each well to a vial containing liquid scintillant for analysis.
# [1] = Human pharmacokinetics (literature); format: in vivo
# human OAT3 = molecular target: T2, human OAT3 (Homo sapiens, UniProt Q8TCC7); experiment: Indirect uptake transporter assay, OAT3; format: in vitro ADME; design: key to Maximal Inhibition: ND: Not Determined (< 50% inhibition); NDe: Not Decisive (Activation or inhibition > 25% of the baseline but no trend observed); NIO: No Interaction Observed (< 20% inhibition)
# T2 construct: expressed in transfected cells
# T2 sequence (Q8TCC7 1-542): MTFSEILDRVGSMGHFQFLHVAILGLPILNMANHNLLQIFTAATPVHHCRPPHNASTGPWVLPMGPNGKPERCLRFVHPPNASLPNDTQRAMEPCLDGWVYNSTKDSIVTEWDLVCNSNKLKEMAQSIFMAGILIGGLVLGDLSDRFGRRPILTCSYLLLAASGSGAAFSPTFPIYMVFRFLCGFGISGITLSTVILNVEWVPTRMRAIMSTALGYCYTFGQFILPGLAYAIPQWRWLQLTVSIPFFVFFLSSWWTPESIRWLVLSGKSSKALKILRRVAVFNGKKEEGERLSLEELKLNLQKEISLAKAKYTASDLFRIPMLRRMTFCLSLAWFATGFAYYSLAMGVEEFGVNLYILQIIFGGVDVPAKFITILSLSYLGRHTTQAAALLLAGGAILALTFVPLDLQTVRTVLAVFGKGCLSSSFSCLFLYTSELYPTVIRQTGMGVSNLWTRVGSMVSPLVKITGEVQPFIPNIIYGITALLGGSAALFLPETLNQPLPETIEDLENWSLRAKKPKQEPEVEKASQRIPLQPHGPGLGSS
# From the text: as §1, §2, §3, §4, §5
smiles,measurement,setting,value
CC12CC3CC(C)(C1)CC(N)(C3)C2 [memantine],Maximal Inhibition,"human PEPT1; PEPT1, up to 300 µM",~62%
same,pIC50,human PEPT1; PEPT1-mediated glycylsarcosine transport,3.55
same,pIC50,"human PEPT1; PEPT1, probe printed in Table 5: E3S (1 μM), methods and text: Gly-Sar",3.55
same,Contribution of active transport to clearance,[1],30-40%
same,renal clearance higher than human GFR of 125 mL/min,[1],approximately 30%
same,"total systemic clearance, times higher than GFR",[1],~1.4 fold
same,"total systemic clearance, times higher than GFR",[1]; listed as Memantine,~ 1.4 fold
same,clearance,"[1]; plasma, oral, 10 mg, estimated, read-out: Cl p (converted)",2.67 mL/min/kg
same,interaction with OAT3 mediated estrone-3-sulfate transport,human OAT3,did not interact
same,Maximal Inhibition,"human OAT3; OAT3, up to 300 µM",NDe
same,IC50,"human OAT3; OAT3, probe printed in Table 5: Metformin (2µM), methods and text: E3S",ND (Not Determined (< 50% inhibition))
